The values below come from article PMC8748775, “The sphingosine 1-phosphate receptor 2/4 antagonist JTE-013 elicits off-target effects on sphingolipid metabolism” (Scientific Reports, 2022).

In one data set the target is T1, S1P lyase (Homo sapiens, UniProt O95470).
T1 construct: gene SGPL1; FLAG-tagged human S1P lyase overexpressed in HEK293T cells (whole cell lysate)
T1 sequence (O95470 1-568): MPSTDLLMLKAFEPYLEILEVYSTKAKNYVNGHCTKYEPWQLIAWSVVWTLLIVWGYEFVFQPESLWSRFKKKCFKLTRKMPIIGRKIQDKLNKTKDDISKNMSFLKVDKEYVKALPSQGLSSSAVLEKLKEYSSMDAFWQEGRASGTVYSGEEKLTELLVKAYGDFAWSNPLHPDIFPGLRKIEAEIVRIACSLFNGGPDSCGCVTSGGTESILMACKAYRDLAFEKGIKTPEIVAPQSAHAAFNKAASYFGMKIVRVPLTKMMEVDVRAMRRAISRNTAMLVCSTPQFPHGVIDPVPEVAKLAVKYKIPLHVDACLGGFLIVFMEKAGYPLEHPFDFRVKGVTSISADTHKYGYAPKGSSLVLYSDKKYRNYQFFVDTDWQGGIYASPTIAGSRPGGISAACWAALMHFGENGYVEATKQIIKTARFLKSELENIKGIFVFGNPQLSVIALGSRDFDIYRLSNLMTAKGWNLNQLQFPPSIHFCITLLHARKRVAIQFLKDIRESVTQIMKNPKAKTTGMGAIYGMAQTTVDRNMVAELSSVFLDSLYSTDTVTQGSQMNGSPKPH
Kind of data set: fluorogenic S1P lyase assay in overexpressing lysate, […] DOP. Type of data set: cell-based.

The target in data set [1] is T2, dihydroceramide desaturase 1 (Des1) (Homo sapiens, UniProt O15121).
T2 construct: gene DEGS1; Des1-FLAG (C-terminal FLAG), expressed in HEK293T cells; with cytochrome B5 (CYB5)
The data set is described as follows: HPLC NBD-C6-dhCer conversion; Ki from Des1-overexpressing HEK293T lysates, competitive inhibition confirmed with purified Des1-FLAG plus CYB5. The data set is classed as biochemical.

Data set [2] concerns the target T3, sphingosine kinase 2 (SK2) (Homo sapiens, UniProt Q9NRA0).
T3 construct: gene SPHK2; purified recombinant human SK2
T3 sequence (Q9NRA0 1-654): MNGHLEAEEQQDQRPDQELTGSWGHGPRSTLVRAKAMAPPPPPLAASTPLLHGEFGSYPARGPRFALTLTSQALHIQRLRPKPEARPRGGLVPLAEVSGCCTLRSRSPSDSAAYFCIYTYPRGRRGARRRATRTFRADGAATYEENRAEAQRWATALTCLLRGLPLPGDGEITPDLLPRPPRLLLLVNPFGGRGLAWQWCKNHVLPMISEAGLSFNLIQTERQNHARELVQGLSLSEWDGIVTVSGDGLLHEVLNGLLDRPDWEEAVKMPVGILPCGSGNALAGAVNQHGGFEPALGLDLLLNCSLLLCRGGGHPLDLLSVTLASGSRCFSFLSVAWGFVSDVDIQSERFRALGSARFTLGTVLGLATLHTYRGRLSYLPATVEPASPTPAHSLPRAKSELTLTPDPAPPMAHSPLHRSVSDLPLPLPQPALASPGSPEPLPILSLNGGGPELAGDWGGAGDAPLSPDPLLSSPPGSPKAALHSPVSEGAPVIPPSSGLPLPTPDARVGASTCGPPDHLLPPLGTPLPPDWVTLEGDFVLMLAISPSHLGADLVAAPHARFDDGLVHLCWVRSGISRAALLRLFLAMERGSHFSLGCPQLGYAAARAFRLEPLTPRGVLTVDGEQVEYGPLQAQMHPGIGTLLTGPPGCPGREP
Kind of data set: in vitro radiometric [γ-32P]ATP sphingosine kinase assay with purified enzyme. The data set is classed as biochemical.

For data set [3], the target named is T4, sphingosine kinase 1 (SK1) (Homo sapiens, UniProt Q9NYA1).
T4 construct: gene SPHK1; purified recombinant human SK1
The description is as above. Type of data set: biochemical.

Substrate in data set [4]: CCCCCCCCCCCCCCC[C@@H](O)[C@H](CO)NC(=O)CCCCCNc1ccc([N+](=O)[O-])c2nonc12
The data set is described as follows: HPLC conversion to NBD-C6-Cer; KM from Des1-overexpressing lysates, turnover also with purified Des1-FLAG. Type of data set: biochemical, Homo sapiens. The note with it: NADPH; iron ((NH4)2Fe(SO4)[…] in purified assay).

The Ki is a dissociation constant, usually derived from enzyme kinetics or from competition with a known ligand. One may read the IC50 as the point on the concentration scale where inhibition reaches its midpoint. For orientation: Km means the concentration of substrate that gives half-maximal velocity.

T2 sequence (P00167 2-134 partner, one chain of several): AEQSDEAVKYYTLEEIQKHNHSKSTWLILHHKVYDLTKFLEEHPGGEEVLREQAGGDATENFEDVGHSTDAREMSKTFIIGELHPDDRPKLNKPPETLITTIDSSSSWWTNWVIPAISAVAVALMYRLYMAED
T4 sequence (Q9NYA1 whole entry): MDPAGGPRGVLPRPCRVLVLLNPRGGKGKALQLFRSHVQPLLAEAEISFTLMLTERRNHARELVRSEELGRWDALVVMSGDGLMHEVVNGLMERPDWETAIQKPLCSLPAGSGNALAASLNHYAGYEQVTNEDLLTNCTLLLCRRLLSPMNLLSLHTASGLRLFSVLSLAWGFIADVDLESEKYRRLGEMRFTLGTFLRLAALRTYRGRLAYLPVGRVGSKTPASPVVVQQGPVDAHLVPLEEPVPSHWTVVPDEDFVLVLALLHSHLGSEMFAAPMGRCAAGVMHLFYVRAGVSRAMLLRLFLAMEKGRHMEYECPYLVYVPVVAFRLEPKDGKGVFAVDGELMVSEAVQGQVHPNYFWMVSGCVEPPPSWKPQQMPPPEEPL

Take `Cc1ncc(CO)c(C)c1O` [DOP, 4-deoxypyridoxine]: on S1P lyase, the “fluorogenic S1P lyase assay in overexpressing lysate, 1.25 mM DOP” value is “known S1P lyase inhibitors 4-deoxypyridoxine and FTY720 both showed inhibition of S1P lyase activity”.

Turning to `Cc1nn(C)c2nc(NNC(=O)Nc3c(Cl)cncc3Cl)cc(C(C)C)c12` [JTE-013], in data set [1], the Ki stood at 9.2 ± 0.8 µM. Also, the IC50 in data set [2] amounted to 4.3 ± 0.5 µM; in data set [3], 25.1 ± 2.7 µM.

B1: dihydroceramide desaturase 1 (Des1) (Homo sapiens) (protein)
chain: GSRVSREDFEWVYTDQPHADRRREILAKYPEIKSLMKPDPNLIWIIIMMVLTQLGAFYIVKDLDWKWVIFGAYAFGSCINHSMTLAIHEIAHNAAFGNCKAMWNRWFGMFANLPIGIPYSISFKRYHMDHHRYLGADGVDVDIPTDFEGWFFCTAFRKFIWVILQPLFYAFRPLFINPKPITYLEVINTVAQVTFDILIYYFLGIKSLVYMLAASLLGLGLHPISGHFIAEHYMFLKGHETYSYYGPLNLLTFNVGYHNEHHDFPNIPGKSLPLVRKIAAEYYDNLPHYNSWIKVLYDFVMDDTISPYSRMKRHQKGEMVLE
notes: Des1-FLAG (C-terminal FLAG), expressed in HEK293T cells; with cytochrome B5 (CYB5)
For B1, the Km in data set [4] turned out to be 0.3 µM.
